{
  "source": "paper PMC11008251",
  "about": "“Distribution of 2,2′,5,5′-Tetrachlorobiphenyl (PCB52) Metabolites in Adolescent Rats after Acute Nose-Only Inhalation Exposure” (Environmental Science & Technology, 2024)",
  "test": "Body and organ weights after PCB52 nose-only inhalation",
  "assay_type": "in vivo, Sprague–Dawley rats",
  "conditions": "for Relative Organ Weights, Brain / Relative Organ Weights, Kidneys / Relative Organ Weights, Liver / Relative Organ Weights, Lung / Relative Organ Weights, Ovaries / Relative Organ Weights, Spleen / Relative Organ Weights, Thymus / Relative Organ Weights, Testies: mean (standard deviation); for Adrenal Glands weight / Body Weight Post Exposure / Kidneys weight / Liver weight / Lung weight / Reproductive organ weight / Spleen weight / Thymus weight: n=6",
  "description": "The Institutional Animal Care and Use Committee of the University of Iowa approved all of the animal protocols. Animals were housed in a temperature- and humidity-controlled room (21 °C, 55% relative humidity) with a 12 h light/dark cycle in an Association for the Assessment and Accreditation of Laboratory Animal Care (AAALAC) accredited animal facility. Animals were provided with food (sterile Teklad 5% stock diet, Harlan, Madison, WI) and water ad libitum throughout the study. Thirty-six male and female Sprague–Dawley rats (7 weeks of age; Charles River, Wilmington, MA) were allowed to acclimate to the animal facility for 8 days after arrival. Prior to exposure, rats (227 ± 27 and 197 ± 13 g, male and female, respectively) were randomly assigned to the exposure groups (n = 6 per group) using a random number generated (Excel, version 2307). Animals were simultaneously exposed for 4 h to a low or high concentration of PCB52-laden per sex) or filtered lab air (Figure 1A). Exposure duration was limited to 4 h along with scheduled training days (30 min at 55 days of age and 2 h at 56 days of age) to acclimate animals and minimize stress. […] Animal exposure occurred for 4 h at 57 days of age. Rats are considered adolescents at this age.[38] Serum was collected immediately after the animals were removed from the nose-only apparatus by cardiac puncture under isoflurane anesthesia. Rats were perfused with saline, and organs were excised and stored at −80 °C. Body and organ weights, including brain, lungs, and thymus, were not altered by PCB52 inhalation regardless of sex or exposure (Tables S2 and S3).",
  "data": [
    {"smiles": "Clc1ccc(Cl)c(-c2cc(Cl)ccc2Cl)c1", "note": "[PCB52, 2,2′,5,5′-tetrachlorobiphenyl]", "values": [
      {"measurement": "Relative Organ Weights, Brain", "setting": "Females, High", "result": "0.010 (0.001) g/g BW"},
      {"measurement": "Relative Organ Weights, Kidneys", "setting": "Females, High", "result": "0.009 (0.001) g/g BW"},
      {"measurement": "Relative Organ Weights, Liver", "setting": "Females, High", "result": "0.042 (0.003) g/g BW"},
      {"measurement": "Relative Organ Weights, Lung", "setting": "Females, High", "result": "0.006 (0.001) g/g BW"},
      {"measurement": "Relative Organ Weights, Ovaries", "setting": "Females, High", "result": "0.003 (0.001) g/g BW"},
      {"measurement": "Relative Organ Weights, Spleen", "setting": "Females, High", "result": "0.002 (0.001) g/g BW"},
      {"measurement": "Relative Organ Weights, Thymus", "setting": "Females, High", "result": "0.003 (0.001) g/g BW"},
      {"measurement": "Relative Organ Weights, Brain", "setting": "Females, Low", "result": "0.010 (0.001) g/g BW"},
      {"measurement": "Relative Organ Weights, Kidneys", "setting": "Females, Low", "result": "0.009 (0.001) g/g BW"},
      {"measurement": "Relative Organ Weights, Liver", "setting": "Females, Low", "result": "0.044 (0.002) g/g BW"},
      {"measurement": "Relative Organ Weights, Lung", "setting": "Females, Low", "result": "0.007 (0.001) g/g BW"},
      {"measurement": "Relative Organ Weights, Ovaries", "setting": "Females, Low", "result": "0.003 (0.001) g/g BW"},
      {"measurement": "Relative Organ Weights, Spleen", "setting": "Females, Low", "result": "0.003 (0.001) g/g BW"},
      {"measurement": "Relative Organ Weights, Thymus", "setting": "Females, Low", "result": "0.003 (0.001) g/g BW"},
      {"measurement": "Adrenal Glands weight", "setting": "High exposure group, female", "result": 0.06, "unit": "grams"},
      {"measurement": "Body Weight Post Exposure", "setting": "High exposure group, female", "result": "196.92 ± 9.39", "unit": "grams"},
      {"measurement": "Kidneys weight", "setting": "High exposure group, female", "result": 1.85, "unit": "grams"},
      {"measurement": "Liver weight", "setting": "High exposure group, female", "result": 8.29, "unit": "grams"},
      {"measurement": "Lung weight", "setting": "High exposure group, female", "result": 1.23, "unit": "grams"},
      {"measurement": "Reproductive organ weight", "setting": "High exposure group, female", "result": "0.59 ± 0.16", "unit": "grams"},
      {"measurement": "Spleen weight", "setting": "High exposure group, female", "result": 0.44, "unit": "grams"},
      {"measurement": "Thymus weight", "setting": "High exposure group, female", "result": "0.58 ± 0.06", "unit": "grams"},
      {"measurement": "Adrenal Glands weight", "setting": "High exposure group, male", "result": 0.03, "unit": "grams"},
      {"measurement": "Body Weight Post Exposure", "setting": "High exposure group, male", "result": "192.17 ± 22.01", "unit": "grams"},
      {"measurement": "Kidneys weight", "setting": "High exposure group, male", "result": 1.73, "unit": "grams"},
      {"measurement": "Liver weight", "setting": "High exposure group, male", "result": 9.28, "unit": "grams"},
      {"measurement": "Lung weight", "setting": "High exposure group, male", "result": 1.52, "unit": "grams"},
      {"measurement": "Reproductive organ weight", "setting": "High exposure group, male", "result": "1.82 ± 0.52", "unit": "grams"},
      {"measurement": "Spleen weight", "setting": "High exposure group, male", "result": 0.53, "unit": "grams"},
      {"measurement": "Thymus weight", "setting": "High exposure group, male", "result": "0.56 ± 0.05", "unit": "grams"},
      {"measurement": "Adrenal Glands weight", "setting": "Low exposure group, female", "result": 0.04, "unit": "grams"},
      {"measurement": "Body Weight Post Exposure", "setting": "Low exposure group, female", "result": "183.46 ± 14.31", "unit": "grams"},
      {"measurement": "Kidneys weight", "setting": "Low exposure group, female", "result": 1.70, "unit": "grams"},
      {"measurement": "Liver weight", "setting": "Low exposure group, female", "result": 8.11, "unit": "grams"},
      {"measurement": "Lung weight", "setting": "Low exposure group, female", "result": 1.24, "unit": "grams"},
      {"measurement": "Reproductive organ weight", "setting": "Low exposure group, female", "result": "0.55 ± 0.10", "unit": "grams"},
      {"measurement": "Spleen weight", "setting": "Low exposure group, female", "result": 0.47, "unit": "grams"},
      {"measurement": "Thymus weight", "setting": "Low exposure group, female", "result": "0.61 ± 0.12", "unit": "grams"},
      {"measurement": "Adrenal Glands weight", "setting": "Low exposure group, male", "result": 0.04, "unit": "grams"},
      {"measurement": "Body Weight Post Exposure", "setting": "Low exposure group, male", "result": "228.20 ± 14.09", "unit": "grams"},
      {"measurement": "Kidneys weight", "setting": "Low exposure group, male", "result": 1.99, "unit": "grams"},
      {"measurement": "Liver weight", "setting": "Low exposure group, male", "result": 10.31, "unit": "grams"},
      {"measurement": "Lung weight", "setting": "Low exposure group, male", "result": 1.48, "unit": "grams"},
      {"measurement": "Reproductive organ weight", "setting": "Low exposure group, male", "result": "2.51 ± 0.14", "unit": "grams"},
      {"measurement": "Spleen weight", "setting": "Low exposure group, male", "result": 0.59, "unit": "grams"},
      {"measurement": "Thymus weight", "setting": "Low exposure group, male", "result": "0.70 ± 0.15", "unit": "grams"},
      {"measurement": "Relative Organ Weights, Brain", "setting": "Males, High", "result": "0.010 (0.001) g/g BW"},
      {"measurement": "Relative Organ Weights, Kidneys", "setting": "Males, High", "result": "0.009 (0.001) g/g BW"},
      {"measurement": "Relative Organ Weights, Liver", "setting": "Males, High", "result": "0.048 (0.003) g/g BW"},
      {"measurement": "Relative Organ Weights, Lung", "setting": "Males, High", "result": "0.008 (0.002) g/g BW"},
      {"measurement": "Relative Organ Weights, Spleen", "setting": "Males, High", "result": "0.003 (0.001) g/g BW"},
      {"measurement": "Relative Organ Weights, Testies", "setting": "Males, High", "result": "0.009 (0.002) g/g BW"},
      {"measurement": "Relative Organ Weights, Thymus", "setting": "Males, High", "result": "0.003 (0.001) g/g BW"},
      {"measurement": "Relative Organ Weights, Brain", "setting": "Males, Low", "result": "0.008 (0.001) g/g BW"},
      {"measurement": "Relative Organ Weights, Kidneys", "setting": "Males, Low", "result": "0.009 (0.001) g/g BW"},
      {"measurement": "Relative Organ Weights, Liver", "setting": "Males, Low", "result": "0.045 (0.002) g/g BW"},
      {"measurement": "Relative Organ Weights, Lung", "setting": "Males, Low", "result": "0.007 (0.002) g/g BW"},
      {"measurement": "Relative Organ Weights, Spleen", "setting": "Males, Low", "result": "0.003 (0.001) g/g BW"},
      {"measurement": "Relative Organ Weights, Testies", "setting": "Males, Low", "result": "0.011 (0.001) g/g BW"},
      {"measurement": "Relative Organ Weights, Thymus", "setting": "Males, Low", "result": "0.003 (0.001) g/g BW"},
      {"measurement": "Body and organ weights, including brain, lungs, and thymus", "setting": "regardless of sex or exposure", "result": "not altered"}
    ]}
  ]
}
